Among the data in publication PMC11909904 (Cardiovascular Diabetology, 2025) are CETSA values, retold here.

The target of the experiment is T1, GPR30 (Rattus norvegicus, UniProt O08878).
T1 sequence (O08878 1-375): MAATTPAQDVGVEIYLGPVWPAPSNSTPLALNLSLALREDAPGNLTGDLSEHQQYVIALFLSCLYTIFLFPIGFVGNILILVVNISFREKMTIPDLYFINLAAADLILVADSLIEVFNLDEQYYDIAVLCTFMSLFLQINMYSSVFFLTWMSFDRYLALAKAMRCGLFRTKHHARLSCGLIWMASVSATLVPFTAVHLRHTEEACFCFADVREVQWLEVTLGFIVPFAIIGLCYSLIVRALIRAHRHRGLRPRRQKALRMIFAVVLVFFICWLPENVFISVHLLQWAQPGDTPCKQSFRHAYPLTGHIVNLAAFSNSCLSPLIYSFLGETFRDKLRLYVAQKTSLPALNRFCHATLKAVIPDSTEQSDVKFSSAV
Description: CETSA in intact RVECs and lysates. The class given is biochemical. The conditions noted are these: 30 µM Rd (CETSA).

With `CC(C)=CCC[C@](C)(O[C@@H]1O[C@H](CO)[C@@H](O)[C@H](O)[C@H]1O)[C@H]1CC[C@]2(C)[C@@H]1[C@H](O)C[C@@H]1[C@@]3(C)CC[C@H](O[C@@H]4O[C@H](CO)[C@@H](O)[C@H](O)[C@H]4O[C@@H]4O[C@H](CO)[C@@H](O)[C@H](O)[C@H]4O)C(C)(C)[C@@H]3CC[C@]12C` [Rd, Ginsenoside Rd], the CETSA result was “the incubation with Rd stabilized GPR30 in heat-denatured intact RVECs and cell lysates”.
